# Experimental data from the Kinase Knowledgebase extract (Sharma et al. 2016).
# Biological target: PIK3CD (Human) (UniProt O00329)
# Test: Inhibition of PIK3CD Kinase Activity
# PIK3CD (Human), sequence (O00329 whole entry, looked up): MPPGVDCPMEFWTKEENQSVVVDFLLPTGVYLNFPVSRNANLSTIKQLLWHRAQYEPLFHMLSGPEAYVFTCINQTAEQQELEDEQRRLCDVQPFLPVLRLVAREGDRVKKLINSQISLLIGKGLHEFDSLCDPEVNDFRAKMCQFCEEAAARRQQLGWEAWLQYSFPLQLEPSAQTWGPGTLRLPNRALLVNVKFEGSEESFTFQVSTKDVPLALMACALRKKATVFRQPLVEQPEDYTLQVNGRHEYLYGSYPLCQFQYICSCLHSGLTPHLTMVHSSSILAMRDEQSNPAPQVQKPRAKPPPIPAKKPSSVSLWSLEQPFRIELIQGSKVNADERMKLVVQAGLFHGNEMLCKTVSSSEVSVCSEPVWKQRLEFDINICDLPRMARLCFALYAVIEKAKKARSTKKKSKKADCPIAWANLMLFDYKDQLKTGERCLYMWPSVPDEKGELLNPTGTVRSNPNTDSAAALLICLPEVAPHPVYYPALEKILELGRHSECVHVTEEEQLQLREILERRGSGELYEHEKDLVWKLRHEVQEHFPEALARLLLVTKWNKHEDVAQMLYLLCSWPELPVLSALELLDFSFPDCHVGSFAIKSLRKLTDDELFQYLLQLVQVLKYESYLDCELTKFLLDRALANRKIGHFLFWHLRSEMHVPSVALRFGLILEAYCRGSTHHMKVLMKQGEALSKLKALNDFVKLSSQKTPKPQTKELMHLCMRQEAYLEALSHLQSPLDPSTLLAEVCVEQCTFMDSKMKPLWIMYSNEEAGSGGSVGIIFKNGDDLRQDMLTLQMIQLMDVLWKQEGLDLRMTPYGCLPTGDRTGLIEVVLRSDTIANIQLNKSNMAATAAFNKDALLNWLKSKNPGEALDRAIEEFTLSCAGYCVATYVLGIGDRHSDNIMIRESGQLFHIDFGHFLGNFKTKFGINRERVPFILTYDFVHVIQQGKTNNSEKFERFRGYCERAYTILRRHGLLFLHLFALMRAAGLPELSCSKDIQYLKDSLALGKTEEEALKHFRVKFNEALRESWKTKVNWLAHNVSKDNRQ
row,Compound,IC50 [nM]
1,CCn1c(CN2CCN(C(C)(C)C(N)=O)CC2)nc2c(N3CCOCC3)nc(-c3c(F)ccc4[nH]ccc34)nc21,< 500
2,CCn1c(CN2CCC3(CC2)CNC(=O)C3)nc2c(N3CCOCC3)nc(-c3cccc4[nH]ccc34)nc21,< 500
3,CCn1c(CN2C[C@@H](C)N(CC(N)=O)[C@@H](C)C2)nc2c(N3CCOCC3)nc(-c3cccc4[nH]ccc34)nc21,< 500
4,CCn1c(CN2CCC(n3cccn3)CC2)nc2c(N3CCOCC3)nc(-c3c(F)ccc4[nH]ccc34)nc21,< 500
5,CCn1c(CN2CCN(CC(F)(F)F)CC2)nc2c(N3CCOCC3)nc(-c3cccc4[nH]ccc34)nc21,< 500
6,CCn1c(CN2CCC(C)(C(N)=O)CC2)nc2c(N3CCOCC3)nc(-c3c(F)ccc4[nH]ccc34)nc21,< 500
7,CCn1c(CN2CC(N3CCOCC3)C2)nc2c(N3CCOCC3)nc(-c3cccc4[nH]ccc34)nc21,< 500
8,CCn1c(CN2CCN3CCOC[C@H]3C2)nc2c(N3CCOCC3)nc(-c3c(F)ccc4[nH]ccc34)nc21,< 500
9,CCn1c(CN2CCC(N3CCOC3=O)CC2)nc2c(N3CCOCC3)nc(-c3c(F)ccc4[nH]ccc34)nc21,< 500
10,CCn1c(CN2CCN3CCC[C@H]3C2)nc2c(N3CCOCC3)nc(-c3c(F)ccc4[nH]ccc34)nc21,< 500
11,CCn1c(CN2CCC(N3CCS(=O)(=O)CC3)CC2)nc2c(N3CCOCC3)nc(-c3cccc4[nH]ccc34)nc21,< 500
12,CCn1c(CN2CCC(C(N)=O)CC2)nc2c(N3CCOCC3)nc(-c3c(F)ccc4[nH]ccc34)nc21,< 500
13,CC(C)(C(N)=O)N1CCN(Cc2nc3c(N4CCOCC4)nc(-c4cccc5[nH]ccc45)nc3[nH]2)CC1,< 500
14,CCn1c(CN2CCC(C(=O)O)(N3CCOCC3)CC2)nc2c(N3CCOCC3)nc(-c3c(F)ccc4[nH]ccc34)nc21,< 500
15,CCn1c(CN2CCc3ccccc3C2)nc2c(N3CCOCC3)nc(-c3c(F)ccc4[nH]ccc34)nc21,< 500
16,CCn1c(CN2CC(NC(C)(C)C(N)=O)C2)nc2c(N3CCOCC3)nc(-c3c(F)ccc4[nH]ccc34)nc21,< 500
17,CCn1c(CN2CCC(N3CCOCC3=O)CC2)nc2c(N3CCOCC3)nc(-c3c(F)ccc4[nH]ccc34)nc21,< 500
18,CCn1c(CN2CCC3(CC2)CNC(=O)CO3)nc2c(N3CCOCC3)nc(-c3c(F)ccc4[nH]ccc34)nc21,< 500
19,CCn1c(CN2CCC(N(C)C)CC2)nc2c(N3CCOCC3)nc(-c3c(F)ccc4[nH]ccc34)nc21,< 500
20,CCn1c(CN2CC3COCC(C2)N3)nc2c(N3CCOCC3)nc(-c3c(F)ccc4[nH]ccc34)nc21,< 500
21,CCn1c(CN2CC(=O)NC(C)(C)C2)nc2c(N3CCOCC3)nc(-c3cccc4[nH]ccc34)nc21,< 500
22,CCn1c(CN2CCN(CC(N)=O)C(C)(C)C2)nc2c(N3CCOCC3)nc(-c3cccc4[nH]ccc34)nc21,< 500
23,CCn1c(CN2CCN(C(C)C)C(=O)C2)nc2c(N3CCOCC3)nc(-c3c(F)ccc4[nH]ccc34)nc21,< 500
24,CCn1c(CN2CCC(N3CCCC3=O)CC2)nc2c(N3CCOCC3)nc(-c3c(F)ccc4[nH]ccc34)nc21,< 500
25,CCn1c(CN2CCN(CC(N)=O)[C@@H](C(C)C)C2)nc2c(N3CCOCC3)nc(-c3c(F)ccc4[nH]ccc34)nc21,< 500
26,CCn1c(CN2CCC(n3cccn3)CC2)nc2c(N3CCOCC3)nc(-c3cccc4[nH]ccc34)nc21,< 500
27,CCn1c(CN2CC(N(C)C(C)(C)C(N)=O)C2)nc2c(N3CCOCC3)nc(-c3c(F)ccc4[nH]ccc34)nc21,< 500

row,Compound,IC50 [nM]
1,CCn1c(CN2CC[C@H](NC(C)(C)C(N)=O)C2)nc2c(N3CCOCC3)nc(-c3c(F)ccc4[nH]ccc34)nc21,< 500
2,CCn1c(CN2C[C@@H](C)N(CC(N)=O)[C@@H](C)C2)nc2c(N3CCOCC3)nc(-c3c(F)ccc4[nH]ccc34)nc21,< 500
3,CCn1c(CN2CCC(N3CC(F)C3)CC2)nc2c(N3CCOCC3)nc(-c3c(F)ccc4[nH]ccc34)nc21,< 500
4,CCn1c(CN2CC(N3CCOCC3)C2)nc2c(N3CCOCC3)nc(-c3c(F)ccc4[nH]ccc34)nc21,< 500
5,CCn1c(CN2CCC3(CCNC3=O)CC2)nc2c(N3CCOCC3)nc(-c3c(F)ccc4[nH]ccc34)nc21,< 500
6,CCn1c(CN2CC(N(C)C(C)(C)C(N)=O)C2)nc2c(N3CCOCC3)nc(-c3cccc4[nH]ccc34)nc21,< 500
7,CCn1c(CN2CCC(N3CCOC3=O)CC2)nc2c(N3CCOCC3)nc(-c3cccc4[nH]ccc34)nc21,< 500
8,CCn1c(CN2CCC(c3cc[nH]n3)CC2)nc2c(N3CCOCC3)nc(-c3cccc4[nH]ccc34)nc21,< 500
9,CN(C)C1CCN(Cc2nc3c(N4CCOCC4)nc(-c4c(F)ccc5[nH]ccc45)nc3[nH]2)CC1,< 500
10,CCn1c(CN2CCN(C3CCS(=O)(=O)CC3)CC2)nc2c(N3CCOCC3)nc(-c3c(F)ccc4[nH]ccc34)nc21,< 500
11,CCn1c(CN2CCC(N(C)C)CC2)nc2c(N3CCOCC3)nc(-c3cccc4[nH]ccc34)nc21,< 500
12,CCn1c(CN2CCC(N3CC(F)(F)C3)CC2)nc2c(N3CCOCC3)nc(-c3c(F)ccc4[nH]ccc34)nc21,< 500
13,CCn1c(CN2CCC3(CC2)CNC(=O)C3)nc2c(N3CCOCC3)nc(-c3c(F)ccc4[nH]ccc34)nc21,< 500
14,CCn1c(CN2CCN(CC(F)(F)F)CC2)nc2c(N3CCOCC3)nc(-c3c(F)ccc4[nH]ccc34)nc21,< 500
15,CCn1c(CN2CCC3(CCNC3=O)CC2)nc2c(N3CCOCC3)nc(-c3cccc4[nH]ccc34)nc21,< 500
16,CCn1c(CN2CCN3CCC[C@H]3C2)nc2c(N3CCOCC3)nc(-c3cccc4[nH]ccc34)nc21,< 500
17,CCn1c(CN2CCC(N3CCOCC3)CC2)nc2c(N3CCOCC3)nc(-c3c(F)ccc4[nH]ccc34)nc21,< 500
18,CCn1c(CN2CCC(c3cc[nH]n3)CC2)nc2c(N3CCOCC3)nc(-c3c(F)ccc4[nH]ccc34)nc21,< 500
19,CCn1c(CN2CCC(N(C)S(C)(=O)=O)CC2)nc2c(N3CCOCC3)nc(-c3cccc4[nH]ccc34)nc21,< 500
20,CCn1c(CN2CCOC(C)(C)C2)nc2c(N3CCOCC3)nc(-c3c(F)ccc4[nH]ccc34)nc21,< 500
21,Cn1c(CN2CCN(C(C)(C)C(N)=O)CC2)nc2c(N3CCOCC3)nc(-c3cccc4[nH]ccc34)nc21,< 500
22,CCn1c(CN2CCN(C(C)C)C(=O)C2)nc2c(N3CCOCC3)nc(-c3cccc4[nH]ccc34)nc21,< 500
23,CCn1c(CN2CCC(N3CCOCC3=O)CC2)nc2c(N3CCOCC3)nc(-c3cccc4[nH]ccc34)nc21,< 500
24,CCn1c(CN2CCN(C3CCOCC3)CC2)nc2c(N3CCOCC3)nc(-c3cccc4[nH]ccc34)nc21,< 500
25,CCn1c(CN2CCC(N3CC(F)(F)C3)CC2)nc2c(N3CCOCC3)nc(-c3cccc4[nH]ccc34)nc21,< 500
26,Cn1c(CN2CCN(C(C)(C)C(N)=O)CC2)nc2c(N3CCOCC3)nc(-c3c(F)ccc4[nH]ccc34)nc21,< 500
27,CCn1c(CN2CCC(N3CCCCC3=O)CC2)nc2c(N3CCOCC3)nc(-c3cccc4[nH]ccc34)nc21,< 500

row,Compound,IC50 [nM]
1,CCn1c(CN2CCC(N3CCOCC3)CC2)nc2c(N3CCOCC3)nc(-c3cccc4[nH]ccc34)nc21,< 500
2,CCn1c(CN2CCN(C(C)(C)C(N)=O)CC2)nc2c(N3CCOCC3)nc(-c3cccc4[nH]ccc34)nc21,< 500
3,CCn1c(CN2CCOC(C)(C)C2)nc2c(N3CCOCC3)nc(-c3cccc4[nH]ccc34)nc21,< 500
4,CCn1c(CN2CCC(N3CCC3=O)CC2)nc2c(N3CCOCC3)nc(-c3c(F)ccc4[nH]ccc34)nc21,< 500
5,CCn1c(CN2CCC(C(N)=O)(N3CCOCC3)CC2)nc2c(N3CCOCC3)nc(-c3cccc4[nH]ccc34)nc21,< 500
6,CCn1c(CN2CCN(CC(N)=O)[C@@H](C(C)C)C2)nc2c(N3CCOCC3)nc(-c3cccc4[nH]ccc34)nc21,< 500
7,CCn1c(CN2CCC3(CC2)CNC(=O)CO3)nc2c(N3CCOCC3)nc(-c3cccc4[nH]ccc34)nc21,< 500
8,CCn1c(CN2CCN(C3CCS(=O)(=O)CC3)CC2)nc2c(N3CCOCC3)nc(-c3cccc4[nH]ccc34)nc21,< 500
9,c1cc(-c2nc(N3CCOCC3)c3nc(CN4CCN5CCOC[C@H]5C4)[nH]c3n2)c2cc[nH]c2c1,< 500
10,CC(C)(C(N)=O)N1CCN(Cc2nc3c(N4CCOCC4)nc(-c4c(F)ccc5[nH]ccc45)nc3n2CCO)CC1,< 500
11,CCn1c(CN2CCC(N3CCCC3=O)CC2)nc2c(N3CCOCC3)nc(-c3cccc4[nH]ccc34)nc21,< 500
12,CCn1c(CN2CCN(CC(N)=O)C(C)(C)C2)nc2c(N3CCOCC3)nc(-c3c(F)ccc4[nH]ccc34)nc21,< 500
13,CCn1c(CN2CCC(N3CCS(=O)(=O)CC3)CC2)nc2c(N3CCOCC3)nc(-c3c(F)ccc4[nH]ccc34)nc21,< 500
14,CN(C)C1CCN(Cc2nc3c(N4CCOCC4)nc(-c4cccc5[nH]ccc45)nc3[nH]2)CC1,< 500
15,CCn1c(CN2CCC(N3CCCCC3=O)CC2)nc2c(N3CCOCC3)nc(-c3c(F)ccc4[nH]ccc34)nc21,< 500
16,CCn1c(CN2CCN3C(=O)COC[C@H]3C2)nc2c(N3CCOCC3)nc(-c3c(F)ccc4[nH]ccc34)nc21,< 500
17,CCn1c(CN2CCN(C3CCOCC3)CC2)nc2c(N3CCOCC3)nc(-c3c(F)ccc4[nH]ccc34)nc21,< 500
18,CCn1c(CN2CCC(N3CCC3=O)CC2)nc2c(N3CCOCC3)nc(-c3cccc4[nH]ccc34)nc21,< 500
19,CCn1c(CN2CC(NC(C)(C)C(N)=O)C2)nc2c(N3CCOCC3)nc(-c3cccc4[nH]ccc34)nc21,< 500
20,CCn1c(CN2CC(=O)NC(C)(C)C2)nc2c(N3CCOCC3)nc(-c3c(F)ccc4[nH]ccc34)nc21,< 500
21,CCn1c(CN2CCc3ccccc3C2)nc2c(N3CCOCC3)nc(-c3cccc4[nH]ccc34)nc21,< 500
22,CC(C)(C(N)=O)N1CCN(Cc2nc3c(N4CCOCC4)nc(-c4c(F)ccc5[nH]ccc45)nc3[nH]2)CC1,< 500
23,CCn1c(CN2CCC(N3CCC3)CC2)nc2c(N3CCOCC3)nc(-c3c(F)ccc4[nH]ccc34)nc21,< 500
24,CCn1c(CN2CCC(C(=O)O)CC2)nc2c(N3CCOCC3)nc(-c3c(F)ccc4[nH]ccc34)nc21,< 500
25,CCn1c(CN2CCC(N(C)S(C)(=O)=O)CC2)nc2c(N3CCOCC3)nc(-c3c(F)ccc4[nH]ccc34)nc21,< 500
26,CCn1c(CN2CCC(N3CC(F)C3)CC2)nc2c(N3CCOCC3)nc(-c3cccc4[nH]ccc34)nc21,< 500
